≈ marks a conversion by molar mass, not a printed value.
Experiments:
Experiment in all cases: MIC, GAM agar, anaerobic
Assay type in all cases: cell-based
Bacteroides fragilis V-8 = settings: V8, GAM agar, anaerobic, 37° C., 40 hours, inoculum 10^6/ML, read-out: Minimum inhibitory concentration (MIC)
Experimental: (§1) Minimum inhibitory concentration (MIC) for gram
(§2) Note: incubated at 37° C. for 40 hours on GAM agar medium (product
(§3) of Nippon Seiyaku) using anaerobic incubator. Inoculated with 10^6

Bacteroides fragilis V-7 = settings: V7, GAM agar, anaerobic, 37° C., 40 hours, inoculum 10^6/ML, read-out: Minimum inhibitory concentration (MIC)
Experimental: as §1, §2, §3

Bacteroides fragilis V-6 = settings: V6, GAM agar, anaerobic, 37° C., 40 hours, inoculum 10^6/ML, read-out: Minimum inhibitory concentration (MIC)
Experimental: as §1, §2, §3

[1] = system: Fusobacterium glutinosum 1006; settings: 37° C., 40 hours, inoculum 10^6/ML, read-out: Minimum inhibitory concentration (MIC)
Experimental: as §1, §2, §3

O=C(Cn1cnnn1)N[C@@H]1C(=O)N2C(C(=O)O)=C(CSc3nncs3)CS[C@H]12 [Ceftezole, reference compound]
MIC (Bacteroides fragilis V-8): > 100 µg/mL | MIC (Bacteroides fragilis V-7): 25 µg/mL (≈ 56.8 µM) | MIC (Bacteroides fragilis V-6): 100 µg/mL (≈ 227 µM) | MIC [1]: 6.25 µg/mL (≈ 14.2 µM)

— patent publication US4214091A, “Antibiotic No. 2-200 and process for producing thereof” (Chugai Seiyaku Kabushiki Kaisha, priority 1977, dated 1980)
